Laboratory results reported in patent publication US6342494B1, “Carbapenem compounds, use thereof, and intermediate compounds of the same” (Kyoto Pharmaceutical Industries, Ltd., priority 1997, dated 2002).

Experiments:
[1] = dogs, 20 mg/kg oral, measured as hydrolyzed carbapenem compound (A)
Protocol: The compound of the present invention (compound of Example 6, 20 mg/kg) was orally administered to dogs (3 per group) and urinary hydrolyzed carbapenem compound (A) concentration at 0-3, 3-6 and 6-24 hours later was measured by a paper disc method using test bacteria Escherichia coli NIHJ and nutrient agar medium (Difco). The urinary recovery percentage was determined.

[2] = dogs, 20 mg/kg oral, measured as hydrolyzed carbapenem compound (A); remark: listed apart in the source
Protocol: The compound of the present invention (compound of Example 6, 20 mglkg) was orally administered to dogs (3 per group) and plasma hydrolyzed carbapenem compound (A) concentration at 0.25, 0.5, 1.0, 1.5, 2.0, 3.0, 4.0 and 6.0 hours later was measured by a paper disc method using test bacteria Escherichia coli NIHJ and nutrient agar medium (Difco).

Cc1oc(=O)oc1CN1C[C@@H](SC2=C(C(=O)OCOC(=O)C(C)(C)C)N3C(=O)[C@H]([C@@H](C)O)[C@H]3[C@H]2C)C[C@H]1C(=O)N(C)C.Cl [Example 6, Pivaloyloxymethyl (1R,5S,6S)-2-{(3S,5S)-[5-N,N-dimethylaminocarbonyl-1-(5-methyl-2-oxo-1,3-dioxolen-4-yl)methyl]pyrrolidin-3-ylthio}-6-[(1R)-1-hydroxyethyl]-1-methylcarbapen-2-em-3-carboxylate hydrochloride]
urinary recovery (%) 0-3 hr ([1]; 0-3 hr): 10.3% | urinary recovery (%) 0-24 hr ([1]; 0-24 hr): 13.0% | urinary recovery (%) 3-6 hr ([1]; 3-6 hr): 2.4% | urinary recovery (%) 6-24 hr ([1]; 6-24 hr): 0.3% | concentration in plasma (μg/ml) 0.25 hr ([2]; 0.25 hr): 5.06 µg/mL | concentration in plasma (μg/ml) 0.5 hr ([2]; 0.5 hr): 6.56 µg/mL | concentration in plasma (μg/ml) 1.0 hr ([2]; 1.0 hr): 7.60 µg/mL | concentration in plasma (μg/ml) 1.5 hr ([2]; 1.5 hr): 7.67 µg/mL | concentration in plasma (μg/ml) 2.0 hr ([2]; 2.0 hr): 5.92 µg/mL | concentration in plasma (μg/ml) 3.0 hr ([2]; 3.0 hr): 3.68 µg/mL | concentration in plasma (μg/ml) 4.0 hr ([2]; 4.0 hr): 1.92 µg/mL | concentration in plasma (μg/ml) 6.0 hr ([2]; 6.0 hr): 0.43 µg/mL
